According to ChEMBL document CHEMBL3397021, “Synthesis and biological evaluation of 3-([1,2,4]triazolo[4,3-a]pyridin-3-yl)-4-(indol-3-yl)-maleimides as potent, selective GSK-3β inhibitors and neuroprotective agents” (Bioorg Med Chem, 2015):

Tests used:
[1] = molecular target: Glycogen synthase kinase-3 beta (Homo sapiens, UniProt P49841)
Description: Inhibition of recombinant GST-tagged GSK-3beta (unknown origin) expressed in Escherichia coli strain BL21-Codon Plus (DE3) using Ser/Thr 9 peptide substrate by Z'-LYTE kinase assay

[2] = Neuroprotective activity against glutamate-induced neurotoxicity in Sprague-Dawley rat primary cerebellar granule neurons assessed as cell viability at 10 uM pre-incubated for 24 hrs before glutamate stimulation for 24 hrs by MTT assay; format: functional; details: Neuron, read-out: Activity

Chain of Glycogen synthase kinase-3 beta (P49841 whole entry): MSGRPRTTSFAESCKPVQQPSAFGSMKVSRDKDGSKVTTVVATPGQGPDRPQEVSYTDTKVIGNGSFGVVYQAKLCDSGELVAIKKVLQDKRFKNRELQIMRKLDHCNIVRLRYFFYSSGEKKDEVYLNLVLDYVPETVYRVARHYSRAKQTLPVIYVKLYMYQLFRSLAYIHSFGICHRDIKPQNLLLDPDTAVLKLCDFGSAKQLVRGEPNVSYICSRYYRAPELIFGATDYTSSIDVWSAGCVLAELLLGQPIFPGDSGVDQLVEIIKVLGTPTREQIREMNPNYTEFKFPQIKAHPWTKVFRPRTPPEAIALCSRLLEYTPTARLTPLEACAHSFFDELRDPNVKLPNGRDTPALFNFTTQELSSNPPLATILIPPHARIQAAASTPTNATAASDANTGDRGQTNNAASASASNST

Row | SMILES | IC50 [1] [nM] | viability at 10 µM [2] [%]
1 | Cc1cccc2c(C3=C(c4nnc5ccccn45)C(=O)NC3=O)cn(C)c12 | 105 | 94.3
2 | Cn1cc(C2=C(c3nnc4ccccn34)C(=O)NC2=O)c2ccc(Cl)cc21 | 159 | 55.7
3 | Cn1cc(C2=C(c3nnc4ccccn34)C(=O)NC2=O)c2cc(Br)ccc21 | 63.5 | 93.5
4 | COc1ccc2c(c1)c(C1=C(c3nnc4ccccn34)C(=O)NC1=O)cn2C | 942 | –
5 | C=CCn1cc(C2=C(c3nnc4ccccn34)C(=O)NC2=O)c2ccccc21 | 73.6 | –
6 | CC(C)n1cc(C2=C(c3nnc4ccccn34)C(=O)NC2=O)c2ccccc21 | 13 | 94.4
7 | O=C1NC(=O)C(c2nnc3ccccn23)=C1c1cn(CCCn2ccnc2)c2ccccc12 | 36 | 60.6
8 | O=C1NC(=O)C(c2nnc3ccccn23)=C1c1cn(CCCO)c2ccccc12 | 121 | –

Continued, in another order:

Row | IC50 [1] [nM] | SMILES | viability at 10 µM [2] [%]
9 | 477 | O=C1NC(=O)C(c2nnc3ccccn23)=C1c1c[nH]c2ccccc12 | –
10 | 154 | Cn1cc(C2=C(c3nnc4ccccn34)C(=O)NC2=O)c2ccccc21 | 83.6
11 | 188 | Cn1cc(C2=C(c3nnc4ccccn34)C(=O)NC2=O)c2cc(F)ccc21 | 71.6
12 | 204 | Cn1cc(C2=C(c3nnc4ccccn34)C(=O)NC2=O)c2ccc(F)cc21 | 59.7
13 | 74.1 | Cn1cc(C2=C(c3nnc4ccccn34)C(=O)NC2=O)c2cc(Cl)ccc21 | 95.1
14 | 327 | Cn1cc(C2=C(c3nnc4ccccn34)C(=O)NC2=O)c2ccc(Br)cc21 | –
15 | 69.7 | CCCCn1cc(C2=C(c3nnc4ccccn34)C(=O)NC2=O)c2ccccc21 | 93.2
16 | 200 | O=C1NC(=O)C(c2nnc3ccccn23)=C1c1cn(CCCN2CCOCC2)c2ccccc12 | –
